According to patent publication US6509344B1, “Indenoisoquinolines as antineoplastic agents” (The United States of America as represented by the …, priority 1998, dated 2003):

Tests used:
HOP-62 = assay: NCI human cancer cell line screen (COMPARE screening), Lung HOP-62; assay type: cell-based; details: Homo sapiens; HOP-62; concentration causing 50% growth inhibition; read-out: Cytotoxicity (G150 in μM) Lung HOP-62
Procedure, shortened: (§1)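 Each compound is tested in vitro across roughly 55 human cancer cell lines of diverse tumor origin in the NCI screen, and its antiproliferative (cytotoxic) activity is measured in each line.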

HCT-116 = assay: NCI human cancer cell line screen (COMPARE screening), Colon HCT-116; assay type: cell-based; details: Homo sapiens; HCT-116; concentration causing 50% growth inhibition; read-out: Cytotoxicity (G150 in μM) Colon HCT-116
Procedure, shortened: as §1

UACC-62 = assay: NCI human cancer cell line screen (COMPARE screening), Melanoma UACC-62; assay type: cell-based; details: Homo sapiens; UACC-62; concentration causing 50% growth inhibition; read-out: Cytotoxicity (G150 in μM) Melanoma UACC-62
Procedure, shortened: as §1

OVCAR-3 = assay: NCI human cancer cell line screen (COMPARE screening), Ovarian OVCAR-3; assay type: cell-based; details: Homo sapiens; OVCAR-3; concentration causing 50% growth inhibition; read-out: Cytotoxicity (G150 in μM) Ovarian OVCAR-3
Procedure, shortened: as §1

DU-145 = assay: NCI human cancer cell line screen (COMPARE screening), Prostate DU-145; assay type: cell-based; details: Homo sapiens; DU-145; concentration causing 50% growth inhibition; read-out: Cytotoxicity (G150 in μM) Prostate DU-145
Procedure, shortened: as §1

MDA-MB-435 = assay: NCI human cancer cell line screen (COMPARE screening), Breast MDA-MB-435; assay type: cell-based; details: Homo sapiens; MDA-MB-435; concentration causing 50% growth inhibition; read-out: Cytotoxicity (G150 in μM) Breast MDA-MB-435
Procedure, shortened: as §1

[1] = tested on: approximately 55 different cancer cell lines of diverse tumor origins; assay: NCI screen mean graph midpoint over all cell lines tested; assay type: cell-based, human
topoisomerase I = molecular target: T1, topoisomerase I (Homo sapiens, UniProt P11387); assay: Topoisomerase I-mediated DNA cleavage assay (3'-end-labeled 161 bp pBluescript SK(-) fragment); assay type: biochemical
T1 sequence (P11387 1-765): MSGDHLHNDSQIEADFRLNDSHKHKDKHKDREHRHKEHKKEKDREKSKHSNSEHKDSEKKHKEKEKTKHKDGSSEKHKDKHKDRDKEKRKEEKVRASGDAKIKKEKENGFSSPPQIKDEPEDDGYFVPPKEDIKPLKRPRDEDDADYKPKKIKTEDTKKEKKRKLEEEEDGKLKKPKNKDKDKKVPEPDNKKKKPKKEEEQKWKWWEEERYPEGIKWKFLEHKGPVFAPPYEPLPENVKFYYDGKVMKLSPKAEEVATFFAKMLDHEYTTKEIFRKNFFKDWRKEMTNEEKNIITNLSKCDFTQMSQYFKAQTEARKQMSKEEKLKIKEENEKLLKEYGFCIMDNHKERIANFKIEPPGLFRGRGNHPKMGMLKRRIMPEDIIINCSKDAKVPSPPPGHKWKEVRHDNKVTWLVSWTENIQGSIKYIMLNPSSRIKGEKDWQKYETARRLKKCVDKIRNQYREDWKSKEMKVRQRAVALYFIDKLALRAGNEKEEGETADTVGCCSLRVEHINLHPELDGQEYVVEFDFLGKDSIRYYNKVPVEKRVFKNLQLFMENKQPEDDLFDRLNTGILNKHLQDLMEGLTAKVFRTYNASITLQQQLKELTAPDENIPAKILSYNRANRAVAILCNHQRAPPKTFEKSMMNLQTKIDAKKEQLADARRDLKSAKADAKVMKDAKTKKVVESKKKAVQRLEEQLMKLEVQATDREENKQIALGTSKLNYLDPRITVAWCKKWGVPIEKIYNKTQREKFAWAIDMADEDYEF
Procedure, shortened: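 A 3′-end ³²P-labeled 161 bp Pvu II/Hind III pBluescript SK(−) fragment was incubated with topoisomerase I and drug for 15 min at 30° C, then stopped with 0.5% SDS. Cleavage products were resolved on a denaturing 16% polyacrylamide/7 M urea gel at 51° C and read by phosphorimaging.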

supercoiled SV40 DNA = assay: SV40 DNA unwinding assay; assay type: biochemical; details: supercoiled DNA in the presence of topoisomerase I
Protocol: With some of the compounds (e.g. 27), the activity seemed to increase initially as the concentration was increased, but then it declined at higher concentrations. […] The unwinding assay using supercoiled DNA in the presence of topoisomerase I is a simple procedure to detect DNA intercalation.
After electrophoresis, DNA bands were stained in 10 μg/mL of ethidium bromide and visualized by transillumination with UV light (300 nm).

human topoisomerase II = assay: Topoisomerase II-mediated DNA cleavage assay (5'-end-labeled human c-myc DNA); assay type: biochemical
[2] = molecular target: T2, topoisomerase I cleavage complexes (Homo sapiens, UniProt P11387); assay: Salt reversal of topoisomerase I cleavage complexes; assay type: biochemical; details: increasing salt concentration
T2 sequence (P11387 1-765): T1 sequence (P11387 1-765)

COc1cc2c3c(n(CCCCO)c(=O)c2cc1OC)-c1cc2c(cc1C3=O)OCO2 [Compound 19a, 5,6-Dihydro-5,11-diketo-6-(4-hydroxybut-1-yl)-2,3-dimethoxy-8,9-methylenedioxy-(11H)indeno[1,2-c]isoquinoline]
IC50 (HOP-62): 0.7 µM
IC50 (HCT-116): 1.4 µM
IC50 (UACC-62): 0.99 µM
IC50 (OVCAR-3): 3.7 µM
IC50 (DU-145): 0.36 µM
IC50 (MDA-MB-435): 10 µM
IC50 ([1]; Homo sapiens, average GI50 for all cell lines tested (approximately 55), values outside test range taken as 10^-8 or 10^-4 molar, read-out: MGM (mean graph midpoint)): 3200 nM
cytotoxicity (MGM) relative to lead compound 1 ([1]; comparison in words): lower MGM than the lead compound 1
activity in the topoisomerase I cleavage assay (in words) (topoisomerase I): rival the topoisomerase activity of 1
Top 1 Cleavage (topoisomerase I; relative to the activity of 1 μM camptothecin): + (those compounds having between 20% and 50% of the activity of 1 μM camptothecin)
DNA unwinding (supercoiled SV40 DNA): does not appear to unwind DNA
induction of topoisomerase II cleavage complexes (human topoisomerase II): no effect
reversal of induced cleavage sites by salt treatment [2]: reversed by salt treatment
melting point: 304 to 308 °C
